Data taken from patent US6787551B2, “Thiazolidinedione derivatives and pharmaceutical composition comprising the same” (Chong Kun Dang Pharmaceutical Corporation, priority 2002, dated 2004).
Where two headings read alike, the source gives them in different places.

Legend:
3T3-L1 cells = test: Triglyceride accumulation assay; assay type: cell-based; details: 4 days with compound, concentration giving 50% of maximum enhancement of rosiglitazone activation
Method: 2) Triglyceride accumulation assay (in 3T3-L1 cells)
Undifferentiated adipocyte 3T3-L1 cells were inoculated in a 24-well plate and cultivated in a CO2 incubator at 37° C. To induce differentiation of the undifferentiated adipocytes, the cells were then incubated in a differentiation medium for 48 hours. After adding a certain concentration of each of the test compounds to the differentiation medium, the cells were again incubated for 4 days. Then, the final cell sample was placed into 200 μl of 2-propanol. The amount of triglyceride in the cells were measured by Triglyceride Kit [YEONGDONG PHARMACEUTICAL CO. LTD., Korea] commercially available.

[1] = tested on: mice with diabetes (KK/Ay); test: Blood glucose- and blood lipid-lowering action in mice with diabetes; assay type: in vivo; details: male KK/Ay mice, daily oral administration for 5 days; for Blood glucose (ED25): dose reducing blood glucose by 25%; for Triglyceride (ED25): dose reducing triglyceride by 25%
Method: Male mice with diabetes (KK/Ay: 10 weeks old, 5 animals/group) were housed and given free access to water and food. The animals received a daily oral administration of the test compounds for 5 days. After the last dose, a blood sample was drawn via the orbital sinus.
The plasma was analyzed for blood glucose content using the Glucose-E kit (YEONGDONG PHARMACEUTICAL CO. LTD., Korea), and for triglyceride content using the Triglyceride kit (YEONGDONG PHARMACEUTICAL CO. LTD., Korea).

[2] = tested on: primary cultured rat hepatocytes
Method: (§1) Hepatocytes isolated from rat were inoculated in a collagen-coated 24 well plate and was incubated in a CO2 incubator at 37° C. for 24 hours. Then, a certain concentration of each of the test compounds was added, and the cells were again incubated for 24 hours. The cells were then incubated in a 0.4% neutral red containing medium for 4 hours and washed once with phosphate buffer. 0.5 ml of a solution of 1% acetic acid-50% ethanol was added to the cells, which were let stand. 200 ul of the cell sample was taken and absorbance was measured at 570 nm. The cytotoxicity assay performed on hepatocytes was measured as 25% toxic concentration (TC25, uM). Then, the safety index, i.e. the TC25 value in the cytotoxicity assay in hepatocyte/the EC50 value in the triglyceride accumulation assay, was calculated.

[3] = tested on: differentiated 3T3-L1 cell; test: 2-Deoxy-D-[2,6-3H] glucose uptake assay; assay type: cell-based; details: differentiated 3T3-L1 cells, 24 h with compound, 0.5 nM insulin; concentration giving 50% of maximum enhancement of insulin activation; read-out: 2-deoxyglucose uptake (EC50 nM)
Method: 1) 2-Deoxy-D-[2,6-3H] glucose uptake assay (in differentiated 3T3-L1 cell)
Undifferentiated adipocyte 3T3-L1 cells were inoculated in a 24-well plate and cultivated in a CO2 incubator at 37° C. To induce differentiation of the undifferentiated adipocytes, the cells were then incubated in a differentiation medium. After adding a certain concentration of each of the test compounds to the medium, the cells were again incubated for 24 hours. After removing the medium, the cells were washed with phosphate buffer, and 0.5 nM of insulin in phosphate buffer was added to the washed cells, followed by incubation for 40 minutes. Then, 0.5 uCi of 2-deoxy-D-[2,6-3H] glucose per well was again added to the cells, which were let stand for 4 minutes. Then, the cells were washed with phosphate buffer, and cell lysis buffer was added, so as to dissolve the cell membranes. The cell sample was placed into a liquid scintillation cocktail solution. The radioactivity of the sample was counted by a liquid scintillation counter.

[4] = tested on: primary cultured rat hepatocytes; test: Cytotoxicity assay in primary cultured rat hepatocytes (neutral red); details: for Safety index (TC25 nM/EC50 nM): TC25 in hepatocyte cytotoxicity assay / EC50 in triglyceride accumulation assay; for Cytotoxicity in hepatocyte (TC25 uM): primary rat hepatocytes, 24 h, neutral red, 25% toxic concentration
Method: as §1

## 5-(4-[2-(N-methyl-N-(2-(4-anilinyl)pyridinyl)amino)ethoxy]benzyl)-2,4-thiazolidinedione [Ex. 38]
3T3-L1 cells
  EC50: 5.5 nM
[1]
  Blood glucose (ED25): 1.5 mg/kg
  Triglyceride (ED25): 7.8 mg/kg
[2]
  Cytotoxicity in hepatocyte (TC25 uM): 71000 nM
  Safety index (TC25 nM/EC50 nM): 12909
[3]
  EC50: 10.5 nM

## 5-(4-[2(N-methyl-N-(6-(4-thiophenoxy)pyrimidinyl)amino)ethoxy]benzyl)-2,4-thiazolidinedione [Ex. 32]
3T3-L1 cells
  EC50: 3.2 nM
[1]
  Blood glucose (ED25): 1.5 mg/kg
  Triglyceride (ED25): 12.3 mg/kg
[2]
  Cytotoxicity in hepatocyte (TC25 uM): 89000 nM
  Safety index (TC25 nM/EC50 nM): 27813
[3]
  EC50: 5.9 nM

## 5-(4-[2-(N-methyl-N-(2-(4-anilinyl)pyridinyl)amino)ethoxy]benzylidene)-2,4-thiazolidinedione [Ex. 19]
3T3-L1 cells
  EC50: 20.1 nM
[1]
  Blood glucose (ED25): 3.8 mg/kg
  Triglyceride (ED25): 15.6 mg/kg
[2]
  Cytotoxicity in hepatocyte (TC25 uM): 81000 nM
  Safety index (TC25 nM/EC50 nM): 4030
[3]
  EC50: 48.2 nM

## 5-(4-[2(N-methyl-N-(6-(4-anilinyl)pyrimidinyl)amino)ethoxy]benzyl)-2,4-thiazolidinedione [Ex. 21]
3T3-L1 cells
  EC50: 7.5 nM
[1]
  Blood glucose (ED25): 2.6 mg/kg
  Triglyceride (ED25): 6.2 mg/kg
[2]
  Cytotoxicity in hepatocyte (TC25 uM): 81000 nM
  Safety index (TC25 nM/EC50 nM): 10800
[3]
  EC50: 12.8 nM

## 5-(4-[2-(N-methyl-N-(2-(4-thiophenoxy)pyridinyl)amino)ethoxy]benzyl)-2,4-thiazolidinedione [Ex. 37]
3T3-L1 cells
  EC50: 1.2 nM
[1]
  Blood glucose (ED25): 0.22 mg/kg
  Triglyceride (ED25): 1.4 mg/kg
[2]
  Cytotoxicity in hepatocyte (TC25 uM): 95000 nM
  Safety index (TC25 nM/EC50 nM): 79167
[3]
  EC50: 2.8 nM

## CN(CCOc1ccc(C=C2SC(=O)NC2=O)cc1)c1cc(Oc2ccc(-c3ccccc3)cc2)ncn1 [Ex. 12, 5-(4-[2-(N-methyl-N-(6-(4-(4-phenyl)phenoxy)pyrimidinyl)amino)ethoxy]benzylidene)-2,4-thiazolidinedione]
3T3-L1 cells
  EC50: 46.8 nM
[4]
  Safety index (TC25 nM/EC50 nM): 1816
  Cytotoxicity in hepatocyte (TC25 uM): 85000 nM
[1]
  Blood glucose (ED25): 4.1 mg/kg
  Triglyceride (ED25): 25 mg/kg
[3]
  EC50: 49.5 nM

## 5-(4-[2-(N-methyl-N-(2-(4-(4-chloro)phenoxy)pyridinyl)amino)ethoxy]benzyl)-2,4-thiazolidinedione [Ex. 34]
3T3-L1 cells
  EC50: 1.5 nM
[4]
  Safety index (TC25 nM/EC50 nM): 48667
  Cytotoxicity in hepatocyte (TC25 uM): 73000 nM
[1]
  Blood glucose (ED25): 1.9 mg/kg
  Triglyceride (ED25): 5.6 mg/kg
[3]
  EC50: 4 nM

## CN(CCOc1ccc(C=C2SC(=O)NC2=O)cc1)c1cc(Oc2ccc(Cl)cc2)ncn1 [Ex. 5, 5-(4-[2-(N-methyl-N-(6-(4-(4-chloro)phenoxy)pyrimidinyl)amino)ethoxy]benzylidene)-2,4-thiazolidinedione]
3T3-L1 cells
  EC50: 35 nM
[4]
  Safety index (TC25 nM/EC50 nM): 2657
  Cytotoxicity in hepatocyte (TC25 uM): 93000 nM
[1]
  Blood glucose (ED25): 4.0 mg/kg
  Triglyceride (ED25): 28 mg/kg
[3]
  EC50: 45 nM
